Source: patent US20030215462A1, “Use of UGT inhibitors to increase bioavailability” (priority 2001, published 2003)
“And” between values parts separate entries of the source, which are not always exact repeats. Equal entries are not always repeated. Where two headings read alike, the source gives them in different places.

Assays:
[1] = system: UGT enzymes of human liver microsomes; assay: Inhibition of raloxifene glucuronidation (G1, G2) in human liver microsomes; format: biochemical
From the text: Compounds were eluted using a binary solvent gradient system. […] Solvent B was methanol. […] Detection was at 280 nm.

[2] = system: T1, UGT enzymes of human liver microsomes; assay: Inhibition of 7-HFC glucuronidation in human liver microsomes; format: biochemical; settings: for % of control metabolism (SD, n = 3), 7-HFC glucuronidation: 7-HFC 50 μM, human liver microsomes 100 μg/ml, 15 min
T1 construct: percentage of control metabolism, 7-HFC glucuronidation; percentage of control metabolism, 7-HFC glucuronidation

[3] = system: UGT enzymes of human liver microsomes; assay: as above; format: biochemical; settings: 7-HFC 50 μM, human liver microsomes 100 μg/ml, 15 min
[4] = system: T2, UGT enzymes of human liver microsomes; assay: Inhibition of 2ME2 glucuronidation (MG1, MG2) in human liver microsomes; format: biochemical; settings: liver 062101, 2ME2 50 μM
T2 construct: other: liver 062101
From the text: (§1) Compounds were eluted using a binary solvent gradient system where solvent A was dilute phosphoric acid (pH 3) and solvent B was 80:20 acetonitrile-methanol. […] Detection was at 280 nm.

[5] = target: T3, UGT enzymes of human liver microsomes (Homo sapiens, UniProt P16662); assay: Inhibition of zidovudine glucuronidation in human liver microsomes; format: biochemical; settings: liver lot 062101
T3 construct: residual metabolism (percentage of control), zidovudine glucuronidation; other: liver lot 062101; residual metabolism (percentage of control), zidovudine glucuronidation; residual metabolism (percentage of control)
T3 sequence (P16662 1-529): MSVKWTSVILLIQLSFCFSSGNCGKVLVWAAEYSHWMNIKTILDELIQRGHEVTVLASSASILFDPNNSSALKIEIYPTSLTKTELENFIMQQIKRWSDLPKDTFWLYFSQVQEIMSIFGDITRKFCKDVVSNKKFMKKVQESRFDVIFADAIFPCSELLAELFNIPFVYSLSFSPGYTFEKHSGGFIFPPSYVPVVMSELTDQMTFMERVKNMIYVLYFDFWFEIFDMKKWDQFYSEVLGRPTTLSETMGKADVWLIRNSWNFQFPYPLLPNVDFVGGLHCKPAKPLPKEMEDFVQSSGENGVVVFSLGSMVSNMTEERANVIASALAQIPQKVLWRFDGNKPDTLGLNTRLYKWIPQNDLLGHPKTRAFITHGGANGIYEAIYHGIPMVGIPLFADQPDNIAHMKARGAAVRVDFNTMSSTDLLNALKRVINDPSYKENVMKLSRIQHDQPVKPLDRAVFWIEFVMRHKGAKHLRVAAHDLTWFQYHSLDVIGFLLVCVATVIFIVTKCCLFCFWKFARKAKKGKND
Experimental: Compounds were eluted using a binary solvent gradient system where solvent A was dilute phosphoric acid (pH 3) and solvent B was acetonitrile.
Standardized incubations utilized 500 μM zidovudine substrate, 1 mg/ml microsomal protein, 5 mM UDPGA and a 30 min incubation time. […] Int.

[6] = system: UGT enzymes of pooled human jejunum microsomes; assay: Inhibition of 2ME2 glucuronidation (MG1) in pooled human jejunum microsomes; format: biochemical; settings: jejunum HJ61, 2ME2 50 μM
From the text: as §1

[7] = system: UGT enzymes of pooled human jejunum microsomes; assay: Inhibition of zidovudine glucuronidation in pooled human jejunum microsomes; format: biochemical
Experimental: Increasing the microsomal protein concentration to 1 mg/ml and extending the incubation time to 60 min provided meaningful metabolite levels for inhibition studies.

UGT1A1 = target: T4, UGT1A1 (Homo sapiens, UniProt P22309); assay: Inhibition of raloxifene glucuronidation by recombinant UGT1A1 Supersomes; settings: for Inhibition of raloxifene glucuronidation, G1, UGT1A1 / Inhibition of raloxifene glucuronidation, G2, UGT1A1: raloxifene 50 μM, 250 μg/ml Supersomes, 1 mM UDPGA, 15 min; for % of control metabolism, raloxifene G1 / % of control metabolism, raloxifene G2: UGT1A1
T4 sequence (P22309 26-533): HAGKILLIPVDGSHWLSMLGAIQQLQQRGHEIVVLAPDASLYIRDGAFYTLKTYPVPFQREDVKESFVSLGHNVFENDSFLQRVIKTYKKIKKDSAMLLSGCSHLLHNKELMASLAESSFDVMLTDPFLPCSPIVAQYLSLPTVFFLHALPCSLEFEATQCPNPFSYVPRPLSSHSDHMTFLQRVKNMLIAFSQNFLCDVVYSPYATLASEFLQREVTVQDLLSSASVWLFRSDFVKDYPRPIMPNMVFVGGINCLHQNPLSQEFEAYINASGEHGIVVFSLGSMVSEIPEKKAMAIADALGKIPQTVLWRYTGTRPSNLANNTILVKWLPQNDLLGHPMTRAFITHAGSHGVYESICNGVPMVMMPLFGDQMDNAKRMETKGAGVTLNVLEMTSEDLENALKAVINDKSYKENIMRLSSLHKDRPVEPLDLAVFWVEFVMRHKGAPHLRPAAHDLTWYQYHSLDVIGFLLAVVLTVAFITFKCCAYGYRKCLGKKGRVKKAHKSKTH
Experimental: Compounds were eluted using a binary solvent gradient system. Solvent A was water brought to pH 8 with NH4OH. Solvent B was methanol. Solvent flow rate was 1 ml/min and the column temperature was maintained at 50° C. Detection was at 280 nm. […] The system was then returned to the initial conditions and equilibrated for 3 min.

[8] = humans; cited from earlier work
[9] = G1, inhibitor 500 μM, raloxifene 50 μM, human liver microsomes 250 μg/ml, 15 min
[10] = G2, inhibitor 500 μM, raloxifene 50 μM, human liver microsomes 250 μg/ml, 15 min
[11] = raloxifene 50 μM, inhibitor 25 μM
[12] = raloxifene 50 μM, inhibitor 50 μM
[13] = raloxifene 50 μM, inhibitor 100 μM
[14] = inhibitor column headed only "μM" (between 25 μM and 5 μM)

CC(=O)OC1CC(C)CCC1C(C)C (single isomer, unassigned; (-)) [(−)-Menthyl acetate]
% of control metabolism (SD, n = 3), raloxifene glucuronide G1 [1, 9]: 76 (1) %
% of control metabolism (SD, n = 3), raloxifene glucuronide G2 [1, 10]: 69 (0) %
% of control metabolism (SD, n = 3), 7-HFC glucuronidation ([2]; inhibitor 100 μM): 86 (2) %
% of control metabolism (SD, n = 3), 7-HFC glucuronidation ([2]; inhibitor 200 μM): 72 (2) %
% of control metabolism (SD, n = 3), 7-HFC glucuronidation ([2]; inhibitor 500 μM): 53 (2), % and 53 (1) %
% of control metabolism (SD, n = 3), 7-HFC glucuronidation ([3]; inhibitor 1000 μM): 32 (1) %
% of control metabolism (SD, n = 3), 7-HFC glucuronidation ([3]; inhibitor 2000 μM): 26 (1) %

C#C[C@]1(O)CC[C@H]2[C@@H]3CCc4cc(O)ccc4[C@H]3CC[C@@]21C [17-α-Ethinylestradiol, 17-α-ethinylestradiol, reference compound]
residual metabolism (% of control), 2ME2 MG1 ([4]; inhibitor 25 μM): 74 (1) %
residual metabolism (% of control), 2ME2 MG2 ([4]; inhibitor 25 μM): 62 (1) %
residual metabolism (% of control), 2ME2 MG1 ([4]; inhibitor 50 μM): 64 (2) %
residual metabolism (% of control), 2ME2 MG2 ([4]; inhibitor 50 μM): 41 (3) %
residual metabolism (% of control), 2ME2 MG1 ([4]; inhibitor 100 μM): 48 (0) %
residual metabolism (% of control), 2ME2 MG2 ([4]; inhibitor 100 μM): 4 (0) %
residual metabolism (percentage of control), zidovudine glucuronidation ([5]; inhibitor 50 μM): 54 (2) %
residual metabolism (percentage of control), zidovudine glucuronidation ([5]; inhibitor 100 μM): 40 (2) %
residual metabolism (percentage of control), zidovudine glucuronidation ([5]; inhibitor 200 μM): 24 (1) %
residual metabolism (percentage of control), zidovudine glucuronidation ([5]; inhibitor 500 μM): 13 (1) % and 10 (1) %
residual metabolism (% of control), 2ME2 MG1 ([6]; inhibitor 50 μM): 109 (5) %
residual metabolism (% of control), 2ME2 MG1 ([6]; inhibitor 100 μM): 99 (2) %
% of control metabolism (SD, n = 3), raloxifene glucuronide G1 ([1]; G1, inhibitor 25 μM, raloxifene 50 μM, human liver microsomes 250 μg/ml, 15 min): 66 (3) %
% of control metabolism (SD, n = 3), raloxifene glucuronide G1 ([1]; G1, inhibitor 50 μM, raloxifene 50 μM, human liver microsomes 250 μg/ml, 15 min): 42 (2) %
% of control metabolism (SD, n = 3), raloxifene glucuronide G1 ([1]; G1, inhibitor 100 μM, raloxifene 50 μM, human liver microsomes 250 μg/ml, 15 min): 31 (2) %
% of control metabolism (SD, n = 3), raloxifene glucuronide G1 [1, 9]: 2 (0) %
% of control metabolism (SD, n = 3), raloxifene glucuronide G2 ([1]; G2, inhibitor 25 μM, raloxifene 50 μM, human liver microsomes 250 μg/ml, 15 min): 80 (3) %
% of control metabolism (SD, n = 3), raloxifene glucuronide G2 ([1]; G2, inhibitor 50 μM, raloxifene 50 μM, human liver microsomes 250 μg/ml, 15 min): 60 (2) %
% of control metabolism (SD, n = 3), raloxifene glucuronide G2 ([1]; G2, inhibitor 100 μM, raloxifene 50 μM, human liver microsomes 250 μg/ml, 15 min): 56 (3) %
% of control metabolism (SD, n = 3), raloxifene glucuronide G2 [1, 10]: 6 (0) %
% of control metabolism, raloxifene G1 [1, 11]: 66 (3) %
% of control metabolism, raloxifene G2 [1, 11]: 80 (3) %
% of control metabolism, raloxifene G1 [1, 12]: 42 (2) %
% of control metabolism, raloxifene G2 [1, 12]: 60 (2) %
% of control metabolism, raloxifene G1 [1, 13]: 31 (2) %
% of control metabolism, raloxifene G2 [1, 13]: 56 (3) %
residual metabolism (percentage of control), zidovudine ([7]; inhibitor 100 μM): 30 (1) %
Inhibition of raloxifene glucuronidation, G1, UGT1A1 (UGT1A1; inhibitor 25 μM): 53 (0)
Inhibition of raloxifene glucuronidation, G1, UGT1A1 (UGT1A1; inhibitor 50 μM): 33 (1)
Inhibition of raloxifene glucuronidation, G1, UGT1A1 (UGT1A1; [14]): 81 (0)
Inhibition of raloxifene glucuronidation, G2, UGT1A1 (UGT1A1; inhibitor 25 μM): 72 (1)
Inhibition of raloxifene glucuronidation, G2, UGT1A1 (UGT1A1; inhibitor 50 μM): 58 (3)
Inhibition of raloxifene glucuronidation, G2, UGT1A1 (UGT1A1; [14]): 91 (1)
% of control metabolism, raloxifene G1 (UGT1A1; inhibitor 25 μM): 53 (0) %
% of control metabolism, raloxifene G2 (UGT1A1; inhibitor 25 μM): 72 (1) %
% of control metabolism, raloxifene G1 (UGT1A1; inhibitor 50 μM): 33 (1) %
% of control metabolism, raloxifene G2 (UGT1A1; inhibitor 50 μM): 58 (3) %
percentage of control metabolism, 7-HFC glucuronidation ([2]; inhibitor 500 μM): 72 (1) %
% of control metabolism (SD, n = 3), 7-HFC glucuronidation ([2]; inhibitor 500 μM): 72 (1) %

CC(C)[C@@H]1CC[C@@H](C)C[C@H]1O [(L)-Menthol]
% of control metabolism (SD, n = 3), raloxifene glucuronide G1 [1]: 108 (4) %
% of control metabolism (SD, n = 3), raloxifene glucuronide G2 [1]: 97 (2) %
% of control metabolism (SD, n = 3), 7-HFC glucuronidation ([2]; inhibitor 500 μM): 75 (2), % and 80 (2) %
% of control metabolism (SD, n = 3), 7-HFC glucuronidation ([3]; inhibitor 1000 μM): 72 (1) %
% of control metabolism (SD, n = 3), 7-HFC glucuronidation ([3]; inhibitor 2000 μM): 53 (0) %

CC1CCC(C(C)C)C(O)C1 (stereo not shown) [Menthol]
residual metabolism (% of control), 2ME2 MG1 ([4]; inhibitor 50 μM): 96 (2) %
residual metabolism (% of control), 2ME2 MG2 ([4]; inhibitor 50 μM): 86 (1) %
residual metabolism (% of control), 2ME2 MG1 ([4]; inhibitor 100 μM): 92 (2) %
residual metabolism (% of control), 2ME2 MG2 ([4]; inhibitor 100 μM): 74 (3) %
residual metabolism (percentage of control), zidovudine glucuronidation ([5]; inhibitor 200 μM): 63 (6) %
residual metabolism (percentage of control), zidovudine glucuronidation ([5]; inhibitor 500 μM): 43 (1) % and 37 (4) %
residual metabolism (percentage of control), zidovudine glucuronidation ([5]; inhibitor 1000 μM): 25 (2) %
residual metabolism (% of control), 2ME2 MG1 ([6]; inhibitor 50 μM): 98 (4) %
residual metabolism (% of control), 2ME2 MG1 ([6]; inhibitor 100 μM): 125 (7) %
residual metabolism (percentage of control), zidovudine ([7]; inhibitor 500 μM): 32 (3) %

O=C(O)c1ccccc1O [Salicylic acid]
% of control metabolism (SD, n = 3), raloxifene glucuronide G1 [1, 9]: 92 (2) %
% of control metabolism (SD, n = 3), raloxifene glucuronide G2 [1, 10]: 94 (2) %
% of control metabolism (SD, n = 3), 7-HFC glucuronidation ([2]; inhibitor 100 μM): 84 (1) %
% of control metabolism (SD, n = 3), 7-HFC glucuronidation ([2]; inhibitor 200 μM): 75 (2) %
% of control metabolism (SD, n = 3), 7-HFC glucuronidation ([2]; inhibitor 500 μM): 64 (0), % and 63 (1) %
% of control metabolism (SD, n = 3), 7-HFC glucuronidation ([3]; inhibitor 1000 μM): 47 (1) %
% of control metabolism (SD, n = 3), 7-HFC glucuronidation ([3]; inhibitor 2000 μM): 35 (1) %

C[C@H](CCc1ccccc1)NC[C@H](O)c1ccc(O)c(C(N)=O)c1 [dilevalol]
absolute oral bioavailability [8]: 11-29%

CCc1c2c(nc3ccc(OC(=O)N4CCC(N5CCCCC5)CC4)cc13)-c1cc3c(c(=O)n1C2)COC(=O)[C@]3(O)CC [irinotecan]
absolute oral bioavailability [8]: approximately 13%
